US20100210635A1, “RENIN INHIBITORS” (Takeda Pharmaceutical Company Limited, priority 2006, published 2010)

The compounds below were run against T1, Recombinant human renin (Homo sapiens, UniProt P00797) (assay: In vitro enzymatic activity assay of Renin inhibitors (fluorescence, QXL520/HiLyteFluo488 peptide substrate)). Conditions: not given.
T1 construct: isolate the active form (residues 67-406); made in house; host or cells: FreeStyle 293-F cells (transient expression of pcDNA3.1(+)/hREN)
T1 sequence (P00797 67-406): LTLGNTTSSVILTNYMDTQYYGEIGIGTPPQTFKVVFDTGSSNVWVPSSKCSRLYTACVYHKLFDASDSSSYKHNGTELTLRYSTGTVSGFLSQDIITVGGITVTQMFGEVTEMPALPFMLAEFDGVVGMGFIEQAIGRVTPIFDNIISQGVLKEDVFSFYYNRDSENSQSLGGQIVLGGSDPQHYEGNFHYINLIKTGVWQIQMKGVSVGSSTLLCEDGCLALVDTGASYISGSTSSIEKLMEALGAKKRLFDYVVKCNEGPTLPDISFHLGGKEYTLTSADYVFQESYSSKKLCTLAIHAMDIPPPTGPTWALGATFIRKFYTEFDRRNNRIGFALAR
Format: biochemical
Source text: Test compounds in varying concentrations may be reacted with recombinant human renin in the presence of substrate, e.g., QXL520-γ-Abu-Ile-His-Pro-Phe-His-Leu-Val-Ile-His-Thr-Lys (HiLyteFluo488)-Arg-OH (Anaspec, San Jose, Calif.). The reaction can be followed kinetically using fluorescence (excitation λ=485 nm; emission λ=538 nm). Inhibition constants (IC50) may be calculated by non-linear curve fitting of the compound concentrations and fluorescence intensities to the standard IC50 equation.
Solutions of test compounds in varying concentrations (<2 mM final concentration) are prepared in dimethyl sulfoxide (DMSO) and then diluted into assay buffer comprising 50 mM Hepes, 1 mM EDTA, 1 mM DTT, 0.1 mg/ml BSA, 0.01% Brij35, pH 7.4. Alternatively, the assay can be performed with a high BSA concentration, wherein the buffer contains an additional 2% BSA.
Recombinant human renin (3 nM final concentration) is added to the dilutions and pre-incubated with the compounds for 10 minutes at 37° C. As described in Examples A-C above, human Renin can be obtained by expressing preprorenin (residue 1-406) in mammalian cells, treating the prorenin (residues 24-406) contained in the culture supernatant with trypsin, and isolate the active form (residues 67-406). After pre-incubation, the reaction is initiated with 1 μM of substrate QXL520-γ-Abu-Ile-His-Pro-Phe-His-Leu-Val-Ile-His-Thr-Lys (HiLyteFluo488)-Arg-OH (Anaspec, San Jose, Calif.). The final DMSO in the assay is 5%. The total volume of the reaction mixture is 20 μL, which can be placed on Greiner 384-well small volume plates.
Renin activity may be determined via fluorescence (excitation λ=485 nm; emission λ=538 nm), e.g., on a Molecular Devices SPECTROmax GEMINI XPS. The fluorescence intensity is determined upon the addition of substrate and determined again after incubation at 37° C. for one hour. The fluorescence intensity of a blank (no inhibition) using vehicle alone is also determined. Renin activity is linearly proportional to the change in fluorescence observed (final−initial).
The percent inhibition of Renin at a given compound concentration is defined as:
100%×[1−(Fcompound/Fblank)]
where Fcompound is the observed fluorescence at a given concentration of test compound and Fblank is the observed fluorescence in the presence of vehicle alone.
The pIC50 value (negative log of the molar concentration of the compound that produces 50% inhibition) of a test compound is calculated by non-linear least squares curve fitting of the equation: […]
to percent inhibition versus compound concentration. The 50% inhibitory concentration (IC50) of a test compound is calculated by raising 10 to the negative pIC50 (10^−pIC50).

Row | SMILES | IC50
1 | CN1CCN(C(=O)Oc2ccc(C[C@@H]3CNCCN3C(=O)CCc3ccccc3Oc3ccccc3)cc2)CC1 [Example 72, (R)-4-((1-(3-(2-phenoxyphenyl)propanoyl)piperazin-2-yl)methyl)-phenyl 4-methylpiperazine-1-carboxylate] | 500 to 5000 nM
2 | O=C(Oc1ccc(C[C@@H]2CNCCN2C(=O)CCc2ccccc2Oc2ccccc2)cc1)N1CCOCC1 [Example 73, (R)-4-((1-(3-(2-phenoxyphenyl)propanoyl)piperazin-2-yl)methyl)-phenyl morpholine-4-carboxylate] | 500 to 5000 nM
3 | CCN(CC)C(=O)Oc1ccc(C[C@@H]2CNCCN2C(=O)CCc2ccccc2Oc2ccccc2)cc1 [Example 74, (R)-4-((1-(3-(2-phenoxyphenyl)propanoyl)piperazin-2-yl)methyl)-phenyl diethylcarbamate] | 500 to 5000 nM
4 | CC(=O)NCCc1ccccc1Oc1ccccc1CCC(=O)N1CCNC[C@H]1Cc1ccc(OC(=O)N2CCOCC2)cc1 [Example 80, (R)-4-((1-(3-(2-(2-(2-acetamidoethyl)phenoxy)phenyl)propanoyl)piperazin-2-yl)methyl)phenyl morpholine-4-carboxylate] | 500 to 5000 nM

Same assay, conditions: recombinant human renin 3 nM, 1 μM substrate, 37° C., pH 7.4; values given as ranges; read-out: IC50 of Exemplified Compounds Against Renin

Row | SMILES | IC50
5 | N#CCCc1ccccc1Oc1ccccc1CCC(=O)N1CCNC[C@H]1Cc1ccccc1 [Example 66, (R)-3-(2-(2-(3-(2-benzylpiperazin-1-yl)-3-oxopropyl)phenoxy)phenyl)propanenitrile] | < 500 nM
6 | O=C(CCc1ccccc1Oc1ccccc1)N1CCNC[C@H]1Cc1ccc(O)cc1 [Example 68, (R)-1-(2-(4-hydroxybenzyl)piperazin-1-yl)-3-(2-phenoxyphenyl)-propan-1-one] | < 500 nM
7 | COC(=O)COc1ccc(C[C@@H]2CNCCN2C(=O)CCc2ccccc2Oc2ccccc2)cc1 [Example 69, (R)-methyl 2-(4-((1-(3-(2-phenoxyphenyl)propanoyl)piperazin-2-yl)methyl)phenoxy)acetate] | 500 to 5000 nM
8 | NC(=O)COc1ccc(C[C@@H]2CNCCN2C(=O)CCc2ccccc2Oc2ccccc2)cc1 [Example 70, (R)-2-(4-((1-(3-(2-phenoxyphenyl)propanoyl)piperazin-2-yl)methyl)phenoxy)acetamide] | < 500 nM
9 | CN(C)C(=O)COc1ccc(C[C@@H]2CNCCN2C(=O)CCc2ccccc2Oc2ccccc2)cc1 [Example 71, (R)—N,N-dimethyl-2-(4-((1-(3-(2-phenoxyphenyl)propanoyl)piperazin-2-yl)methyl)phenoxy)acetamide] | 500 to 5000 nM
10 | COCCCOc1ccccc1CCC(=O)N1CCNC[C@H]1Cc1ccccc1 [Example 75, (R)-1-(2-benzylpiperazin-1-yl)-3-(2-(3-methoxypropoxy)phenyl)-propan-1-one] | 500 to 5000 nM
11 | O=C(CCc1ccccc1OCCCO)N1CCNC[C@H]1Cc1ccccc1 [Example 76, (R)-1-(2-benzylpiperazin-1-yl)-3-(2-(3-hydroxypropoxy)phenyl)-propan-1-one] | 500 to 5000 nM
12 | COCCOCCCOc1ccccc1CCC(=O)N1CCNC[C@H]1Cc1ccccc1 [Example 77, (R)-1-(2-benzylpiperazin-1-yl)-3-(2-(3-(2-methoxyethoxy)propoxy)phenyl)propan-1-one] | 500 to 5000 nM
13 | CC(=O)NCCc1ccccc1Oc1ccccc1CCC(=O)N1CCNC[C@H]1Cc1ccc(O)cc1 [Example 79, (R)—N-(2-(2-(3-(2-(4-hydroxybenzyl)piperazin-1-yl)-3-oxopropyl)phenoxy)phenethyl)acetamide] | < 500 nM
14 | CC(=O)NCCc1ccccc1Oc1ccccc1CCC(=O)N1CCNC[C@H]1Cc1ccc(OCC(N)=O)cc1 [Example 81, (R)-2-(4-((1-(3-(2-(2-(2-acetamidoethyl)phenoxy)phenyl)propanoyl)piperazin-2-yl)methyl)phenoxy)acetamide] | < 500 nM
15 | O=C(CCc1ccccc1Oc1ccccc1)N1CCNC[C@H]1Cc1ccc(OCc2nnn[nH]2)cc1 [Example 85, (R)-1-(2-(4-((1H-tetrazol-5-yl)methoxy)benzyl)piperazin-1-yl)-3-(2-phenoxyphenyl)propan-1-one] | < 500 nM
16 | O=C(O)COc1ccc(C[C@@H]2CNCCN2C(=O)CCc2ccccc2Oc2ccccc2)cc1 [Example 86, (R)-2-(4-((1-(3-(2-phenoxyphenyl)propanoyl)piperazin-2-yl)methyl)phenoxy)acetic acid] | 500 to 5000 nM
17 | O=C(CCc1ccccc1Oc1ccccc1CO)N1CCNC[C@H]1Cc1ccccc1 [Example 87, (R)-1-(2-benzylpiperazin-1-yl)-3-(2-(2-(hydroxymethyl)phenoxy)phenyl)propan-1-one] | < 500 nM

Other lines, results leading:

Row | IC50 | SMILES
18 | < 500 nM | COC(=O)CCc1ccccc1Oc1ccccc1CCC(=O)N1CCNC[C@H]1Cc1ccccc1 [Example 67, (R)-methyl 3-(2-(2-(3-(2-benzylpiperazin-1-yl)-3-oxopropyl)phenoxy)phenyl)propanoate]
19 | < 500 nM | CCC(=O)NCCc1ccccc1Oc1ccccc1CCC(=O)N1CCNC[C@H]1Cc1ccccc1 [Example 78, (R)—N-(2-(2-(3-(2-benzylpiperazin-1-yl)-3-oxopropyl)phenoxy)phenethyl)propionamide]
20 | 500 to 5000 nM | O=C(O)CCc1ccccc1Oc1ccccc1CCC(=O)N1CCNC[C@H]1Cc1ccccc1 [Example 82, (R)-3-(2-(2-(3-(2-Benzylpiperazin-1-yl)-3-oxopropyl)phenoxy)phenyl)propanoic acid]
21 | < 500 nM | NC(=O)CCc1ccccc1Oc1ccccc1CCC(=O)N1CCNC[C@H]1Cc1ccccc1 [Example 83, (R)-3-(2-(2-(3-(2-benzylpiperazin-1-yl)-3-oxopropyl)phenoxy)phenyl)propanamide]
22 | < 500 nM | CC(=O)NCCc1ccccc1Cc1ccccc1CCC(=O)N1CCNC[C@H]1Cc1ccccc1 [Example 84, (R)—N-(2-(2-(3-(2-benzylpiperazin-1-yl)-3-oxopropyl)benzyl)phenethyl)acetamide]
23 | < 500 nM | CC(=O)NCCc1ccccc1Cc1ccccc1CCC(=O)N1CCNC[C@H]1Cc1ccc(O)cc1 [Example 88, (R)—N-(2-(2-(3-(2-(4-hydroxybenzyl)piperazin-1-yl)-3-oxopropyl)benzyl)phenethyl)acetamide]
24 | < 500 nM | CC(=O)NCCc1ccccc1Cc1ccccc1CCC(=O)N1CCNC[C@H]1Cc1ccc(OCC(N)=O)cc1 [Example 89, (R)-2-(4-((1-(3-(2-(2-(2-acetamidoethyl)benzyl)phenyl)propanoyl)piperazin-2-yl)methyl)phenoxy)acetamide]
25 | < 500 nM | CC(=O)NCCc1ccccc1Cc1ccccc1CCC(=O)N1CCNC[C@H]1Cc1ccc(OCC(=O)O)cc1 [Example 90, (R)-2-(4-((1-(3-(2-(2-(2-acetamidoethyl)benzyl)phenyl)propanoyl)piperazin-2-yl)methyl)phenoxy)acetic acid]
26 | < 500 nM | CC(=O)NCCc1ccccc1Cc1ccccc1CCC(=O)N1CCNC[C@H]1Cc1ccc(OCC(=O)NS(C)(=O)=O)cc1 [Example 91, (R)-2-(4-((1-(3-(2-(2-(2-acetamidoethyl)benzyl)phenyl)propanoyl)piperazin-2-yl)methyl)phenoxy)-N-(methylsulfonyl)acetamide]
27 | < 500 nM | COC(=O)COc1ccc(C[C@@H]2CNCCN2C(=O)CCc2ccccc2Cc2ccccc2CCNC(C)=O)cc1 [Example 92, (R)-Methyl 2-(4-((1-(3-(2-(2-(2-acetamidoethyl)benzyl)phenyl)propanoyl)piperazin-2-yl)methyl)phenoxy)acetate]
28 | < 500 nM | CC(=O)NCCc1ccccc1Cc1ccccc1CCC(=O)N1CCNC[C@H]1Cc1ccc(C(=O)NS(C)(=O)=O)cc1 [Example 93, (R)-4-((1-(3-(2-(2-(2-acetamidoethyl)benzyl)phenyl)propanoyl)piperazin-2-yl)methyl)-N-(methylsulfonyl)benzamide]
